Consider two compounds from patent US8053585B2, “Protecting group for carboxylic acids that can be photolyzed by visible light” (Cornell Research Foundation, Inc., priority 2006, dated 2011).

Common to all, as to assay type: physicochemical
A short description of data set [1]: UV-vis absorption spectrum of the caged compound. Conditions: for ε390: 390 nm; for ε400: 400 nm. As for the experimental part:
The caged compound (1 mM) was rapidly dissolved in the buffer solution (150 mM NaCl, 1 mM CaCl2, 10 mM HEPES; the pH was adjusted to 7.4 using 5 N NaOH), and the solution was immediately transferred to a cuvette (4 mL volume, 10 mm path length) and placed in an absorption spectrometer (OLIS-14C) at 22° C. Whole spectra were recorded between 1 and 240 min after the compound was dissolved (FIGS. 1 and 7).

The nature of data set [2]: Solubility in water or the buffers used. The settings on record: physiological conditions.
The nature of data set [3]: Hydrolysis in the dark (thermal stability, UV-vis spectra). The settings on record: for hydrolysis at room temperature: HEK buffer pH 7.4, protected from light, 2 h; for hydrolysis on storage: buffer pH 7.4, −20° C. in the dark; for stability in water: pH 7.4 and 22° C. / physiological conditions, in the dark.
Data set [4] can be described thus: Laser-flash photolysis (transient spectral measurements). The settings on record: for time to release the amino acid on photolysis: aqueous solution, visible region; for time constant of single-exponential absorbance decay at 460 nm: light pulse ≧400 nm, 0.8 mM, HEK buffer pH 7.4, 22° C. The procedure: […] The energy of the beam was measured using a Molectron (Portland, Oreg.) joule meter. Light of≧400 nm produced by fluorescence from 4.9×10^−4 M Exalite 404 dye (Exciton Inc., Dayton, Ohio) was used to initiate photolysis. The decay of the transient intermediate absorbance was recorded by digitizing the photomultiplier output at rates up to 2 MHz. The transient absorption changes were monitored at a wavelength where there was significant change in the absorption on irradiation of the caged compound (ca. 460 nm). All photolysis rates and quantum yields were measured at room temperature. Nonlinear least-squares fitting of single exponential decays was used to determine the photolysis rate constants.

Data set [5] is described as follows: Quantum yield of photolysis. Conditions: ≧400 nm, 250 μM, extracellular buffer pH 7.4, 22° C. As for the experimental part:
The quantum yield for the caged compound was determined by actinometric methods (Murov, in Dekker, ed., Handbook of Photochemistry, New York, pp. 298-305 (1993), which is hereby incorporated by reference in its entirety). The Oriel (Oriel Instruments, Stratford, Conn.) lamp used for photolysis was equipped with a filter (Schott glass filter GG400; Schott North America, Inc., Elmsford, N.Y.) to eliminate light at wavelengths below 400 nm.
The quantum yield was also determined using the method published by Milburn et al., “Synthesis, Photochemistry, and Biological Activity of a Caged Photolabile Acetylcholine Receptor Ligand,” Biochemistry 28:49-55 (1989), which is hereby incorporated by reference in its entirety. For measuring the quantum yield of DECM-caged glutamate photolysis, 3 mL sample of 4 (Scheme 1) was photolyzed with repetitive light pulses at≧400 nm, and the concentration of 2 (Scheme 1) was determined spectrophotometrically. For measuring the quantum yield of DECM-caged glycine photolysis, 3 mL sample of 4 (Scheme 2) was photolyzed with repetitive light pulses at≧400 nm, and the concentration of 2 (Scheme 2) was determined spectrophotometrically. […]

The structures appear in SMILES notation. Several values for one entry are separate records, joined by “and”; a condition that tells them apart may be missing. Identical values can stand only once. Entries after “also recorded” stand apart in the source; their conditions may differ. Where only a bound is given, the exact number is not on record here.

For `CCN(CC)c1ccc2c(COC(=O)CCC(N)C(=O)O)cc(=O)oc2c1` (centres unmarked) [DECM-caged glutamate, (7-N,N-Diethylaminocoumarin-4-yl)-methyl-glutamate-trifluoroacetate], in data set [1], the “major absorption band maximum” value was 390 nm, the ε390 stood at 13651 M⁻¹ cm⁻¹ and the ε400 is 12232 M⁻¹ cm⁻¹. Also, in data set [2], the solubility in water result is reported as “sufficiently soluble in water or the buffers used; also recorded: water soluble”. Moreover, in data set [3], the “hydrolysis at room temperature” value is “very little hydrolysis” and the stability in water entry is “stable in the dark”. The hydrolysis on storage result in data set [3] (24 h) is “No measurable hydrolysis”. Also, in data set [4], the “time to release the amino acid on photolysis” value is reported as no more than 3 μs and the “time constant of single-exponential absorbance decay at 460 nm” value came out at 3 μs. In addition, the “quantum yield of photolysis” value in data set [5] is 0.11±0.008 and 0.11±0.08.
In the case of `CCN(CC)c1ccc2c(COC(=O)CN)cc(=O)oc2c1` [DECM-caged glycine, (7-N,N-Diethylaminocoumarin-4-yl)-methyl-glycine-trifluoroacetate], in data set [1], the “major absorption band maximum” value is on record as 390 nm, the ε390 was 13869 M⁻¹ cm⁻¹ and the ε400 is 12427 M⁻¹ cm⁻¹. Besides, the solubility in water result in data set [2] was “water soluble”. Also, in data set [3], the “hydrolysis at room temperature” value is on record as “very little hydrolysis” and the stability in water result is recorded as “stable”. In addition, the hydrolysis on storage entry in data set [3] (20 h) is recorded as “No measurable hydrolysis”. Besides, in data set [4], the “time to release the amino acid on photolysis” value was no more than 2.6 μs and the “time constant of single-exponential absorbance decay at 460 nm” value was found to be 2.6 μs. In addition, the “quantum yield of photolysis” value in data set [5] amounted to 0.12±0.009.
